Experiment: Immumoenzymatic Assay: Solutions of the tested compounds in DMEM medium {DMEM) 1x; Source: Cellgro; Catalogue: 10-013-CV} were prepared immediately before use. Eleven serial three fold dilutions with variation of concentrations from 20 nM to 0.2 pM were prepared. In 4 hours after seeding, serial dilutions of the compounds were added to the cells (100 ul to each well). Final concentration of tested compounds was varied from 10 nM to 0.1 pM, and DMSO4 0.5%. If it was necessary, higher concentrations of the disclosed azoles were investigated. Each dilution of the compound was tested on two identical wells. Then the cells were incubated for three days at 37° C./5% CO2 and fixed by addition of acetone/methanol (1:1) mixture in amount of 250 ul/well. In 1 min the cells were washed 3 times with PBS (Phosphate Buffered Saline) solution. Then the cells were blocked by addition of 10% fetal calf serum in PBS solution in amount of 150 ul/well for 1 h at room temperature. Then, the cells were incubated with mouse monoclonal antibodies to cor-antigen HCV, don C7-50 (Source: Affinity BioReagents; Catalogue: MA1-080) (100 ul/well, working dilution 1:500 in 10% fetal calf serum in PBS solution) for 2 h at 37° C. The cells were washed 6 times with PBS/0.05% Tween 20 solution, then, they were incubated for 1 h with goat anti-mouse immunoglobulin antibodies (conjugated with horseradish peroxidase, 100 ul/well, working dilution 1:2500 in 10% fetal calf serum in PBS solution). The cells were washed 6 times with PBS/0.05% Tween 20 solution, once with PBS solution, after that substrate (1 tablet of o-phenylenediamine (oPD)+12 ml citrate/phosphate buffer+5 ul 30% H2O2) in amount of 100 ul/well was added. The plates were kept for 30 min in the dark at room temperature. The reaction was arrested by the addition of 2N H2SO4 in amount of 100 ul/well, and optical density (wavelength 490 nm) was measured by means of multiscan plate reader Victor3 V 1420 (Perkin Elmer). IC50 values (azole concentration, lowering the level of virus RNA-replicon on 50%) for every tested azole were calculated with the help of XLfit 4 program.
Type: cell-based

Structure (SMILES): COC(=O)N[C@H](C(=O)N1CCC[C@@H]1c1nc(C#CC#Cc2ccc(-c3c[nH]c([C@@H]4CCCN4C(=O)[C@@H](NC(=O)OC)C(C)C)n3)cc2)c[nH]1)c1ccccc1
- IC50 (4 h): 5.4 pM

Structure (SMILES): COC(=O)N[C@H](C(=O)N1CCC[C@H]1c1nc(C#CC#Cc2ccc3cc(-c4c[nH]c([C@@H]5CCCN5C(=O)[C@@H](NC(=O)OC)C(C)C)n4)ccc3c2)c[nH]1)C(C)C
- IC50 (4 h): 3.6 pM

Structure (SMILES): COC(=O)N[C@@H](C(=O)N1CCC[C@@H]1c1ncc(C#CC#Cc2ccc3cc(-c4cnc([C@H]5CCCN5C(=O)[C@H](NC(=O)OC)C(C)C)[nH]4)ccc3c2)[nH]1)C(C)C
- IC50 (4 h): 4.6 pM

Structure (SMILES): COC(=O)N[C@H](C(=O)N1CCC[C@H]1c1nc(C#CC#Cc2ccc(-c3c[nH]c([C@@H]4CCCN4C(=O)[C@@H](NC(=O)OC)C(C)C)n3)cc2)c[nH]1)C(C)C
- IC50: 4 pM

Structure (SMILES): COC(=O)N[C@@H](C(=O)N1CCC[C@H]1c1nc(-c2ccc(C#CC#Cc3c[nH]c([C@H]4CCCN4C(=O)[C@H](NC(=O)OC)C(C)C)n3)cc2)c[nH]1)c1ccccc1
- IC50 (4 h): 8.2 pM

Structure (SMILES): COC(=O)N[C@H](C(=O)N1CCC[C@H]1c1nc(-c2ccc(C#CC#Cc3c[nH]c([C@H]4CCCN4C(=O)[C@H](NC(=O)OC)C(C)C)n3)cc2)c[nH]1)c1ccccc1
- IC50 (4 h): 1.8 pM

Source: ChEMBL document CHEMBL3886901, “Substituted azoles, antiviral active component, pharmaceutical composition, method for preparation and use thereof” (2016)
